Source: patent US20190248739A1 (NEWLINK GENETICS CORPORATION, priority 2015, published 2019)
Counter-ions that a name gives are not always drawn. Marks after values point to notes of the source that are not given here.

How the values were obtained:
[1] = solubility of indoximod and its salts in water, buffers and SGF; format: physicochemical; conditions: 25° C.; for pH of the SGF solution (in brackets): SGF solubility test; for pH of the water solution (in brackets): water solubility test
[2] = crossover pharmacokinetic study of indoximod free base, salts and SDD in cynomolgus monkeys; format: in vivo; conditions: for % Increase over indoximod FB (AUC) / % Increase over indoximod FB (Cmax) / AUC(0 −> 48 h) / Cmax: oral
Description: The SDD suspension formulations were prepared in 0.5% methylcellulose (Methocel).

[3] = pharmacokinetic testing of indoximod salts in capsule formulation in rats; format: in vivo; conditions: capsules
Description: Three dose levels were investigated: 37, 185 or 500 μmol/kg.
Capsules were manually filled and the composition uniformity of a representative sample of capsules from each batch was verified by weight and by LC-MS/MS to determine the average indoximod content.
Rats were fasted 16 h prior to dosing to eliminate any confounding food effects, and food was returned 2 h after dosing.

[4] = hygroscopicity and stability of indoximod and its salts; format: physicochemical; conditions: Table 2, in % (unit assumed)
[5] = pharmacokinetic testing of indoximod prodrugs in liquid formulation in rats; format: in vivo; conditions: oral solution, 50 mg/kg
[6] = pharmacokinetic testing of indoximod prodrugs in liquid formulation in mice; conditions: mice, oral, 50 mg/kg
Description: Blood samples (0.1-0.2 mL) were collected from the femoral artery port from rats or by retro-orbital bleeding from mice and plasma was immediately collected by centrifugation and stored on dry ice to avoid prodrug hydrolysis after plasma collection. […] The pharmacokinetic parameters reflect the average of individual parameter values obtained from each individual rat (n) or one common parameter from a single pharmacokinetic curve derived from blood samples obtained from a group of mice (n).

[7] = both dose levels (275 and 825 μmol/kg)
[8] = 37 μmol/kg, listed as Indoximod hydrochloride salt
[9] = 185 μmol/kg, listed as Indoximod hydrochloride salt
[10] = 500 μmol/kg, listed as Indoximod hydrochloride salt
[11] = listed as Mesylate, methanesulfonate

Cn1cc(C[C@@H](N)C(=O)O)c2ccccc21 [indoximod HCl, (R)-1-carboxy-2-(1-methyl-1H-indol-3-yl)ethan-1-aminium chloride]
pH of the SGF solution (in brackets) ([1]; listed as HCl Salt): 1.03
Solubility (25° C., mg/mL) SGF ([1]; listed as HCl Salt): > 200 mg/mL
Solubility (25° C., mg/mL) SGF ([1]; listed as hydrochloride salt): > 200 mg/mL
pH of the water solution (in brackets) ([1]; listed as HCl Salt): 1.06
Solubility (25° C., mg/mL) Water ([1]; listed as HCl Salt): > 200 mg/mL
Solubility (25° C., mg/mL) Water ([1]; listed as hydrochloride salt): > 200 mg/mL
increase in Cmax compared to indoximod free base capsules [2, 7]: 31-65%
increase in exposure compared to indoximod free base capsules [2, 7]: 37-53%
% Increase over indoximod FB (AUC) ([2]; 275 μmol/kg): 53%
% Increase over indoximod FB (Cmax) ([2]; 275 μmol/kg): 65%
AUC(0 −> 48 h) ([2]; 275 μmol/kg): 101 ± 18 µM·h
Cmax ([2]; 275 μmol/kg): 21.3 ± 8.9 µM
% Increase over indoximod FB (AUC) ([2]; 825 μmol/kg): 37%
% Increase over indoximod FB (Cmax) ([2]; 825 μmol/kg): 31%
AUC(0 −> 48 h) ([2]; 825 μmol/kg): 173 ± 75 µM·h
Cmax ([2]; 825 μmol/kg): 33.4 ± 12 µM
% Increase over indoximod Free Base (AUC) ([3]; 37 μmol/kg): −23%
% Increase over indoximod Free Base (Cmax) ([3]; 37 μmol/kg): −40%
AUC(0 −> ∞) ([3]; 37 μmol/kg): 299 ± 77 µM·h
Cmax ([3]; 37 μmol/kg): 9.5 ± 2 µM
% Increase over indoximod Free Base (AUC) [3, 8]: did not show a significant change
% Increase over indoximod Free Base (Cmax) [3, 8]: non-statistically significant decrease
% Increase over indoximod Free Base (AUC) ([3]; 185 μmol/kg): 38%
% Increase over indoximod Free Base (Cmax) ([3]; 185 μmol/kg): 84%
AUC(0 −> ∞) ([3]; 185 μmol/kg): 1493 ± 728 µM·h
Cmax ([3]; 185 μmol/kg): 38.4 ± 10 µM
% Increase over indoximod Free Base (AUC) [3, 9]: significant increase
% Increase over indoximod Free Base (Cmax) [3, 9]: statistically significant increase
% Increase over indoximod Free Base (AUC) ([3]; 500 μmol/kg): −6%
% Increase over indoximod Free Base (Cmax) ([3]; 500 μmol/kg): −42%
AUC(0 −> ∞) ([3]; 500 μmol/kg): 2706 ± 847 µM·h
Cmax ([3]; 500 μmol/kg): 44.4 ± 8 µM
% Increase over indoximod Free Base (AUC) [3, 10]: did not show a significant change
% Increase over indoximod Free Base (Cmax) [3, 10]: statistically significant decrease
Hygroscopicity (0-80% RH) ([4]; listed as HCl Salt): 0.017

CCOC(=O)[C@H](N)Cc1cn(C)c2ccccc12 [NLG-1283, ethyl 1-methyl-D-tryptophanate hydrochloride]
change in indoximod AUC versus indoximod [5]: increase
change in indoximod Cmax versus indoximod [5]: increase
change in indoximod AUC versus indoximod [6]: decrease
change in indoximod Cmax versus indoximod [6]: decrease

CC(C)OC(=O)[C@H](N)Cc1cn(C)c2ccccc12 [NLG-1284, isopropyl 1-methyl-D-tryptophanate hydrochloride]
change in indoximod AUC versus indoximod [5]: does not produce a significant increase
change in indoximod Cmax versus indoximod [5]: does not produce a significant increase
change in indoximod AUC versus indoximod [6]: significant increase
change in indoximod Cmax versus indoximod [6]: significant increase

Cn1cc(C[C@@H](N)C(=O)O)c2ccccc21 [indoximod CH3SO3H, (R)-1-carboxy-2-(1-methyl-1H-indol-3-yl)ethan-1-aminium methanesulfonate]
pH of the SGF solution (in brackets) [1, 11]: 1.43
Solubility (25° C., mg/mL) SGF [1, 11]: 6.0 mg/mL
pH of the water solution (in brackets) [1, 11]: 1.84
Solubility (25° C., mg/mL) Water [1, 11]: 5.1 mg/mL
% Increase over indoximod Free Base (AUC) ([3]; 37 μmol/kg, methanesulfonate): 38%
% Increase over indoximod Free Base (Cmax) ([3]; 37 μmol/kg, methanesulfonate): 28%
AUC(0 −> ∞) ([3]; 37 μmol/kg, methanesulfonate): 537 ± 194 µM·h
Cmax ([3]; 37 μmol/kg, methanesulfonate): 20.3 ± 2 µM
Hygroscopicity (0-80% RH) [4, 11]: 0.12*
